Experiment [1] relates to MV4-11 human acute myeloid leukemia cell with FLT3-ITD mutation. In words: MV4-11 cell proliferation assay (CellTiter 96). In kind it is cell-based. Conditions: Homo sapiens, MV4-11, 72 h, MV4-11 cells, 72 hours treatment, CellTiter96; read-out: anti-proliferation activity MV4-11 (FLT3-ITD), IC50 ranking. The protocol: (§1) Inhibitions of cell growths by compounds were measured using CellTiter™-96 assay. The cytotoxicities of compounds of the invention were evaluated in cell line panels with different signaling pathway dependencies, including MV4-11 human acute myeloid leukemia cell with FLT3-ITD mutation, Molm-14 human acute myeloid leukemia cell with FLT3-ITD mutation, THP-1 human acute monocytic leukemia cell with NRAS G12D mutation, A375 melanoma cell with BRAF V600E mutation, and HCC827 NSCLC cell with EGFR exon 19 deletion mutation.
The compounds disclosed herein were tested in MV4-11 cell proliferation assay to determine their cellular potencies against FLT3 signal pathway dependent cell growths. MV4-11 cells are human acute myeloid leukemia (AML) cells harboring ligand-independent FLT3-ITD activating mutation, which renders the abnormal proliferation of AML cells FLT3 signaling pathway dependent. Inhibition of FLT3 kinase activity will result in reduced growths and/or cell deaths. MV4-11 cells (catalog #CRL-9591) were obtained from the American Type Culture Collection (ATCC, Manassas, VA). Briefly, cells were grown in IMDM medium supplemented with 10% heat inactivated fetal bovine serum and incubated at 37° C. in 5% CO2 atmosphere. Cells were allowed to expand until reaching saturation, at which point they were sub-cultured or harvested for assay use.
(§2) MV4-11, Molm-14, THP-1, A375, and HCC827 cells were seeded into 96-well plates at 6500, 25000, 5000, 2000 and 8000 cells/well, respectively, and incubated at 37° C., 5% CO2 overnight. Then, these seeded cells were treated with increasing concentrations of the test compounds and incubated for another 72 hours. At the end of the incubation, CellTiter96® AQueous One Solution Reagent (Promega, […]) was added and incubated for the additional 2˜4 hours. Cell viability was determined by measuring absorbance at 490 nm using EMax® microplate reader (Molecular Devices, San Jose, CA, USA).

The subject of experiment [2] is Molm-14 human acute myeloid leukemia cell with FLT3-ITD mutation. In words: Molm-14 cell proliferation assay (CellTiter 96). The format is cell-based. Conditions: Homo sapiens; Molm-14 cells, 72 hours treatment, CellTiter96; read-out: anti-proliferation activity Molm-14 (FLT3-ITD), IC50 ranking. The method, then: as §1
The compounds disclosed herein were tested in Molm-14 cell proliferation assay to determine their cellular potencies against FLT3 signal pathway dependent cell growths. Molm-14 cells are human acute myeloid leukemia (AML) cells harboring ligand-independent FLT3-ITD activating mutation, which renders the abnormal proliferation of the AML cells FLT3 signaling pathway dependent. Inhibition of FLT3 kinase activity will result in reduced growths and/or cell deaths. […] Briefly, cells were grown in RPMI 1640 medium supplemented with 10% heat inactivated fetal bovine serum and incubated at 37° C. in 5% CO2 atmosphere. Cells were allowed to expand until reaching saturation, at which point they were sub-cultured or harvested for assay use.
as §2

Experiment [3] has as its system HCC827 NSCLC cell with EGFR exon 19 deletion mutation. Nature of the experiment: HCC827 cell proliferation assay (counter screen). The format is cell-based, human. The following applies: Homo sapiens, HCC827 cells, 72 hours treatment, CellTiter96, read-out: anti-proliferation activity HCC827 EGFR Exon19 del, IC50 ranking. The method, then:
as §1
HCC827 cells are non-small cell lung carcinoma (NSCLC) cells encoding EGFR exon 19 deletion mutation, which renders the cell growth dependent on EGFR signaling instead of class III RTKs signaling. HCC827 cells (catalog #CRL-2868) were obtained from the ATCC. Briefly, cells were cultured in RPMI1640 medium supplemented with 10% FBS and incubated at 37° C. in 5% CO2 atmosphere. Cells were allowed to expand until reaching saturation, at which point they were sub-cultured or harvested for assay use.
as §2

Experiment [4] deals with phosphorylation of FLT3 and its down-stream effector STAT5. Nature of the experiment: Western blotting of p-FLT3 and p-STAT5 in MV4-11 cells. In kind it is cell-based. The following applies: Homo sapiens; at 30 nM treatment, 3 hours, FLT3-ITD positive MV4-11 leukemia cells; read-out: inhibition activity against phosphorylation of FLT3 and its down-stream effector STAT5. The protocol: The potent compounds of formula (I) in EXAMPLE 2 were evaluated, by western blotting assay, for their cellular potencies against phosphorylation of FLT3 and its down-stream effector STAT5 in MV4-11 leukemia cell line with constitutive activation of FLT3 signaling. For western blotting experiments, MV4-11 cells were cultured in IMDM medium containing 0.1% FBS overnight. On the assay day, three million cells were treated with or without compounds for 3 hours in 15 mL tubes. Then, the whole cell lysates were harvested, following extraction by adding 2×SDS Sample Buffer and boiling on hot plate at 105° C. for 15 minutes. The resulting cell lysates were separated by SDS-PAGE electrophoresis and transferred to PVDF membrane. Protein expression was detected using immunoblot with corresponding primary antibody and secondary antibody following the standard procedures. Antibody against p-FLT3 (Tyr-591), anti-rabbit IgG HRP-linked secondary antibody, and anti-mouse IgG HRP-linked secondary antibody were purchased from Cell Signaling Technology. Antibody against p-STAT5 (Tyr-694) was purchased from BD biosciences. Antibody against actin was purchased from R&D system. […] Band intensities of western blot were also quantified by ChemiDoc™ MP Imaging System. Relative intensities of bandscorresponding to drug treatments at a single concentration (30 nM) were compared to the DMSO control group. The percentage (%) inhibition at each drug concentration was calculated using the formula: Percentage(%)inhibition=(1−Relative intensity)×100.

Regarding `COc1cc(-c2cc3c(s2)Cc2c(-c4ccc5cnn(C)c5c4)n[nH]c2-3)ccc1CN1CCOCC1` [Compound 24, 4-(2-methoxy-4-(3-(1-methyl-1H-indazol-6-yl)-1,4-dihydrothieno[2′,3′:4,5]cyclopenta[1,2-c]pyrazol-6-yl)benzyl)morpholine], the results for the IC50 in experiment [1], in experiment [2] and in experiment [3] were less than 30 nM, 30 to 100 nM and more than 10000 nM, respectively. Also, the inhibition at 0.03 µM in experiment [4] was more than 50%.

On to `Cn1ncc2ccc(-c3n[nH]c4c3Cc3sc(-c5ccc(OCCN6CCOCC6)cc5)cc3-4)cc21` [Compound 69, 4-(2-(4-(3-(1-methyl-1H-indazol-6-yl)-1,4-dihydro-thieno[2′,3′:4,5]cyclopenta [1,2-c]pyrazol-6-yl)phenoxy)ethyl)morpholine], for which the IC50 in experiment [1] was less than 30 nM; in experiment [2], 30 to 100 nM; in experiment [3], more than 10000 nM. Moreover, the inhibition at 0.03 µM in experiment [4] is more than 50%.

As to `COc1cc(-c2cc3c(s2)Cc2c(-c4ccc5cnn(C)c5c4)n[nH]c2-3)ccc1C(=O)N1CCOCC1` [Compound 43, (2-methoxy-4-(3-(1-methyl-1H-indazol-6-yl)-1,4-dihydrothieno [2′,3′:4,5]cyclopenta [1,2-c]pyrazol-6-yl)phenyl)(morpholino) methanone], the results for the IC50 in experiment [1], in experiment [2] and in experiment [3] were 30 to 100 nM, 30 to 100 nM and more than 10000 nM, respectively. Also, the inhibition at 0.03 µM in experiment [4] was more than 50%.

For the compound `Cn1ncc2ccc(-c3n[nH]c4c3Cc3sc(-c5ccc(CN6CCOCC6)s5)cc3-4)cc21` [Compound 51, 4-((5-(3-(1-methyl-1H-indazol-6-yl)-1,4-dihydro-thieno[2′,3′:4,5]cyclopenta [1,2-c]pyrazol-6-yl)thiophen-2-yl)methyl) morpholine], the values for the IC50 in experiment [1], in experiment [2] and in experiment [3] were less than 30 nM, 30 to 100 nM and more than 10000 nM, respectively. Also, in experiment [4], the inhibition at 0.03 µM was more than 50%.

Turning to `C[C@H]1COCCN1Cc1ccc(-c2cc3c(s2)Cc2c(-c4ccc5cnn(C)c5c4)n[nH]c2-3)cc1` [Compound 75, (S)-3-methyl-4-(4-(3-(1-methyl-1H-indazol-6-yl)-1,4-dihydrothieno [2′,3′:4,5]cyclopenta [1,2-c]pyrazol-6-yl)benzyl)morpholine], the figures for the IC50 in experiment [1], in experiment [2] and in experiment [3] were less than 30 nM, 30 to 100 nM and more than 10000 nM, respectively. The inhibition at 0.03 µM in experiment [4] is more than 50%.

`C[C@@H]1CN(Cc2ccc(-c3cc4c(s3)Cc3c(-c5ccc6cn[nH]c6c5)n[nH]c3-4)cn2)C[C@H](C)O1` [Compound 16, (2R,6S)-4-((5-(3-(1H-indazol-6-yl)-1,4-dihydro-thieno[2′,3′:4,5]cyclopenta [1,2-c]pyrazol-6-yl)pyridin-2-yl)methyl)-2,6-dimethylmorpholine]: the IC50 was less than 30 nM in experiment [1], less than 30 nM in experiment [2] and more than 10000 nM in experiment [3]. In addition, the inhibition at 0.03 µM in experiment [4] was more than 50%.

On to `COC1CN(Cc2ccc(-c3cc4c(s3)Cc3c(-c5ccc6cnn(C)c6c5)n[nH]c3-4)cc2)C1` [Compound 105, 6-(4-((3-methoxyazeti-din-1-yl)methyl)phenyl)-3-(1-methyl-1H-indazol-6-yl)-1,4-dihydrothieno [2′,3′:4,5]cyclopenta [1,2-c]pyrazole], for which the results for the IC50 in experiment [1], in experiment [2] and in experiment [3] were less than 30 nM, less than 30 nM and more than 10000 nM, respectively. Further, the inhibition at 0.03 µM in experiment [4] was more than 50%.

In the case of `Cn1ncc2ccc(-c3n[nH]c4c3Cc3sc(N5CCOCC5)cc3-4)cc21` [Compound 78, 4-(3-(1-methyl-1H-indazol-6-yl)-1,4-dihydro-thieno[2′,3′:4,5]cyclopenta [1,2-c]pyrazol-6-yl) morpholine], the IC50 in experiment [1] was less than 30 nM; in experiment [2], less than 30 nM; in experiment [3], more than 10000 nM. Besides, the inhibition at 0.03 µM in experiment [4] was more than 50%.

As for `C[C@@H]1COCCN1Cc1ccc(-c2cc3c(s2)Cc2c(-c4ccc5cnn(C)c5c4)n[nH]c2-3)cc1` [Compound 74, (R)-3-methyl-4-(4-(3-(1-methyl-1H-indazol-6-yl)-1,4-dihydrothieno [2′,3′:4,5]cyclopenta [1,2-c]pyrazol-6-yl)benzyl)morpholine], the IC50 is less than 30 nM in experiment [1], 30 to 100 nM in experiment [2] and more than 10000 nM in experiment [3]. The inhibition at 0.03 µM in experiment [4] is more than 50%.

Consider `Cn1ncc2ccc(-c3n[nH]c4c3Cc3sc(-c5ccc(CN6CCC6)cc5)cc3-4)cc21` [Compound 103, 6-(4-(azetidin-1-ylmethyl)phenyl)-3-(1-methyl-1H-indazol-6-yl)-1,4-dihydro-thieno[2′,3′:4,5]cyclopenta [1,2-c]pyrazole], for which the IC50 in experiment [1] is less than 30 nM; in experiment [2] it was 30 to 100 nM; in experiment [3], more than 10000 nM. Moreover, in experiment [4], the inhibition at 0.03 µM is more than 50%.

Turning to `Cn1ncc2ccc(-c3n[nH]c4c3Cc3sc(-c5ccc(C(=O)N6CCCCC6)cc5)cc3-4)cc21` [Compound 34, (4-(3-(1-methyl-1H-indazol-6-yl)-1,4-dihydro-thieno[2′,3′:4,5]cyclopenta [1,2-c]pyrazol-6-yl)phenyl)(piperidin-1-yl) methanone], the IC50 is 30 to 100 nM in experiment [1], 30 to 100 nM in experiment [2] and more than 10000 nM in experiment [3]. Besides, in experiment [4], the inhibition at 0.03 µM was more than 50%.

Consider `COc1cc(CN2CCOCC2)ccc1-c1cc2c(s1)Cc1c(-c3ccc4cnn(C)c4c3)n[nH]c1-2` [Compound 29, 4-(3-methoxy-4-(3-(1-methyl-1H-indazol-6-yl)-1,4-dihydrothieno [2′,3′:4,5]cyclopenta[1,2-c]pyrazol-6-yl)benzyl) morpholine], for which the IC50 in experiment [1] was less than 30 nM; in experiment [2], 30 to 100 nM; in experiment [3] it was more than 10000 nM. In experiment [4], the inhibition at 0.03 µM is more than 50%.

As to `CN1CCN(C(=O)c2ccc(-c3cc4c(s3)Cc3c(-c5ccc6cnn(C)c6c5)n[nH]c3-4)cc2)CC1` [Compound 15, (4-(3-(1-methyl-1H-indazol-6-yl)-1,4-dihydrothieno[2′,3′:4,5]cyclopenta[1,2-c]pyrazol-6-yl)phenyl)(4-methyl-piperazin-1-yl)methanone], the IC50 in experiment [1] is less than 30 nM; in experiment [2] it was less than 30 nM; in experiment [3], more than 10000 nM. Moreover, in experiment [4], the inhibition at 0.03 µM was more than 50%.

In the case of `Cn1ncc2ccc(-c3n[nH]c4c3Cc3sc(-c5ccc(CN6CCCCC6)cc5)cc3-4)cc21` [Compound 100, 3-(1-methyl-1H-indazol-6-yl)-6-(4-(piperidin-1-ylmethyl)phenyl)-1,4-dihydrothieno[2′,3′:4,5] cyclopenta[1,2-c]pyrazole], the IC50 was less than 30 nM in experiment [1], less than 30 nM in experiment [2] and more than 10000 nM in experiment [3]. Also, the inhibition at 0.03 µM in experiment [4] was more than 50%.

The values above are taken from US12448394B2, “Heterocyclic pyrazole derivatives as type III receptor tyrosine kinase inhibitors” (DEVELOPMENT CENTER FOR BIOTECHNOLOGY, priority 2019, dated 2025).
